The source of these data is patent US20220135591A1, “HETEROCYCLIC COMPOUNDS AS INHIBITORS OF MONOACYLGLYCEROL LIPASE (MAGL)” (Hoffmann-La Roche Inc., priority 2019, published 2022).

The experiment addresses T1, MAGL (Homo sapiens, UniProt Q99685).
T1 sequence (Q99685 1-303): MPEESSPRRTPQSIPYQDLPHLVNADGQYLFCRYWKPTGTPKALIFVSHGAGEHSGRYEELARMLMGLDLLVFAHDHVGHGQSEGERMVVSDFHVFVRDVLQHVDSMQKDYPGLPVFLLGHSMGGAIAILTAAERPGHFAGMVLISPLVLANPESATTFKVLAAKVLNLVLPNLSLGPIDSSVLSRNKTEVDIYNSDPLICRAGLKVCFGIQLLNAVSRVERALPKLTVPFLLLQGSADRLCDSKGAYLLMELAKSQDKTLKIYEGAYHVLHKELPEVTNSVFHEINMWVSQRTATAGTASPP
The experiment in a line: 2-AG assay: MAGL inhibitory activity by hydrolysis of 2-arachidonoylglycerol to arachidonic acid, mass spectrometry. To be noted: 2-AG assay (values marked [b]). It is filed as biochemical. In outline: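 Hydrolysis of 8 μM 2-arachidonoylglycerol by […] was run for 30 min at RT after a 15 min compound preincubation, in Tris/EDTA/Tween buffer. Test compounds spanned […]. The product was measured by online SPE-MS/MS (transitions 303.1→259.1 and 311.1→267.0), and activity was derived from the arachidonic acid/d8-arachidonic acid signal ratio.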
One may read the IC50 as the concentration at which inhibition is half-maximal. `Cc1ccc2oc(N3CCN(C(=O)N4CC(COc5ccc(F)cc5Cl)C4)CC3)nc2n1` [Example 252, [3-[(2-chloro-4-fluorophenoxy)methyl]azetidin-1-yl]-[4-(5-methyl-[1,3]oxazolo[4,5-b]pyridin-2-yl)piperazin-1-yl]methanone] came in with an IC50 of 1240 nM.

Regarding `O=C(NC1CN(C(=O)N2CCN(c3nc4nc(Cl)ccc4o3)CC2)C1)c1ccc(F)cc1Cl` [Example 253, 2-chloro-N-[1-[4-(5-chloro-[1,3]oxazolo[4,5-b]pyridin-2-yl)piperazine-1-carbonyl]azetidin-3-yl]-4-fluorobenzamide], the half-inhibitory concentration (IC50) was at least 12500 nM.

On to `Cc1ccc2oc(N3CCN(C(=O)N4CC(NC(=O)c5ccc(F)cc5Cl)C4)CC3)nc2n1` [Example 254, 2-chloro-4-fluoro-N-[1-[4-(5-methyl-[1,3]oxazolo[4,5-b]pyridin-2-yl)piperazine-1-carbonyl]azetidin-3-yl]benzamide], for which the IC50 is at least 12500 nM.

Regarding `O=C(Nc1ccc(F)cc1Cl)C1CN(C(=O)N2CCN(c3nc4nc(Cl)ccc4o3)CC2)C1` [Example 255, N-(2-chloro-4-fluorophenyl)-1-[4-(5-chloro-[1,3]oxazolo[4,5-b]pyridin-2-yl)piperazine-1-carbonyl]azetidine-3-carboxamide], the half-inhibitory concentration (IC50) was at least 12500 nM.

Molecule `Cc1ccc2oc(N3CCN(C(=O)N4CC(C(=O)Nc5ccc(F)cc5Cl)C4)CC3)nc2n1` [Example 256, N-(2-chloro-4-fluorophenyl)-1-[4-(5-methyl-[1,3]oxazolo[4,5-b]pyridin-2-yl)piperazine-1-carbonyl]azetidine-3-carboxamide] showed a half-inhibitory concentration (IC50) of at least 12500 nM.

For `Cc1cc(C(=O)N2CCN(c3nc4nc(Cl)ccc4o3)CC2)ccc1-c1cn(C(C)(C)C)nn1` [Example 257, (4-(1-(tert-butyl)-1H-1,2,3-triazol-4-yl)-3-methylphenyl)(4-(5-chlorooxazolo[4,5-b]pyridin-2-yl)piperazin-1-yl)methanone], the 50% inhibitory concentration (IC50) stood at 58 nM.

On to `COC(C)(C)Cn1cc(-c2ccc(C(=O)N3CCN(c4nc5nc(Cl)ccc5o4)CC3)cc2)nn1` [Example 258, [4-(5-chlorooxazolo[4,5-b]pyridin-2-yl)piperazin-1-yl]-[4-[1-(2-methoxy-2-methyl-propyl)triazol-4-yl]phenyl]methanone], for which the IC50 is 31 nM.

Turning to `CC(C)Cc1nnc(-c2ccc(C(=O)N3CCN(c4nc5nc(Cl)ccc5o4)CC3)cc2)o1` [Example 267, (4-(5-chlorooxazolo[4,5-b]pyridin-2-yl)piperazin-1-yl)(4-(5-isobutyl-1,3,4-oxadiazol-2-yl)phenyl)methanone], 69 nM corresponded to half-maximal inhibition (IC50).

In the case of `CC(C)(C)Cn1cc(-c2ccc(C(=O)N3CCN(c4nc5nc(Cl)ccc5o4)CC3)cc2C(F)(F)F)nn1` [Example 268, (4-(5-chlorooxazolo[4,5-b]pyridin-2-yl)piperazin-1-yl)(4-(1-neopentyl-1H-1,2,3-triazol-4-yl)-3-(trifluoromethyl)phenyl)methanone], it took 4 nM to reach half-maximal inhibition (IC50).

In turn, `CC(C)(C)Cn1ncc(-c2ccc(C(=O)N3CCN(c4nc5nc(Cl)ccc5o4)CC3)cc2C(F)(F)F)n1` [Example 269, (4-(5-chlorooxazolo[4,5-b]pyridin-2-yl)piperazin-1-yl)(4-(2-neopentyl-2H-1,2,3-triazol-4-yl)-3-(trifluoromethyl)phenyl)methanone] registered an IC50 of 6 nM.

For the molecule `CC(C)(C)Cn1nncc1-c1ccc(C(=O)N2CCN(c3nc4nc(Cl)ccc4o3)CC2)cc1C(F)(F)F` [Example 270, (4-(5-chlorooxazolo[4,5-b]pyridin-2-yl)piperazin-1-yl)(4-(1-neopentyl-1H-1,2,3-triazol-5-yl)-3-(trifluoromethyl)phenyl)methanone], the IC50 amounted to 323 nM.

As to `Cc1cc(C(=O)N2CCN(c3nc4nc(Cl)ccc4o3)CC2)cnc1-c1cn(CC(C)(C)C)nn1` [Example 271, (4-(5-chlorooxazolo[4,5-b]pyridin-2-yl)piperazin-1-yl)(5-methyl-6-(1-neopentyl-1H-1,2,3-triazol-4-yl)pyridin-3-yl)methanone], 74 nM corresponded to half-maximal inhibition (IC50).

For the molecule `Cc1cc(C(=O)N2CCN(c3nc4nc(Cl)ccc4o3)CC2)cnc1-c1cnn(CC(C)(C)C)n1` [Example 272, (4-(5-chlorooxazolo[4,5-b]pyridin-2-yl)piperazin-1-yl)(5-methyl-6-(2-neopentyl-2H-1,2,3-triazol-4-yl)pyridin-3-yl)methanone], the half-inhibitory concentration (IC50) is 9 nM.

Take `C[C@@H]1CN(C(=O)c2ccc(-c3cn(CC(C)(C)C)nn3)cc2)CCN1c1nc2nc(Cl)ccc2o1` [Example 273, [(3R)-4-(5-chlorooxazolo[4,5-b]pyridin-2-yl)-3-methyl-piperazin-1-yl]-[4-[1-(2,2-dimethylpropyl)triazol-4-yl]phenyl]methanone]: it took 20 nM to reach half-maximal inhibition (IC50).

For `C[C@H]1CN(C(=O)c2ccc(-c3cn(CC(C)(C)C)nn3)cc2)CCN1c1nc2nc(Cl)ccc2o1` [Example 274, [(3S)-4-(5-chlorooxazolo[4,5-b]pyridin-2-yl)-3-methyl-piperazin-1-yl]-[4-[1-(2,2-dimethylpropyl)triazol-4-yl]phenyl]methanone], the IC50 came to 137 nM.

As for `Cc1cc(C(=O)N2CCN(c3nc4nc(Cl)ccc4o3)CC2)ccc1-c1nnc(CC(C)C)o1` [Example 275, [4-(5-chlorooxazolo[4,5-b]pyridin-2-yl)piperazin-1-yl]-[4-(5-isobutyl-1,3,4-oxadiazol-2-yl)-3-methyl-phenyl]methanone], half-maximal inhibition (IC50) required 26 nM.

`O=C(c1ccc(OCC2(C(F)(F)F)CC2)nc1Cl)N1CCN(c2nc3nc(Cl)ccc3o2)CC1` [Example 276, [4-(5-chlorooxazolo[4,5-b]pyridin-2-yl)piperazin-1-yl]-[2-chloro-6-[[1-(trifluoromethyl)cyclopropyl]methoxy]-3-pyridyl]methanone] had a 50% inhibitory concentration (IC50) of 1520 nM.

On to `Cc1ccc2oc(N3CCN(C(=O)c4ccc(-c5nnn(CC(C)(C)C)n5)cc4)CC3)nc2n1` [Example 277, (4-(5-methyloxazolo[4,5-b]pyridin-2-yl)piperazin-1-yl)(4-(2-neopentyl-2H-tetrazol-5-yl)phenyl)methanone], for which the IC50 came to 9 nM.

For the molecule `CC(C)(C)c1nnc(-c2ncc(C(=O)N3CCN(c4nc5nc(Cl)ccc5o4)CC3)cc2F)o1` [Example 278, [6-(5-tert-butyl-1,3,4-oxadiazol-2-yl)-5-fluoro-3-pyridyl]-[4-(5-chlorooxazolo[4,5-b]pyridin-2-yl)piperazin-1-yl]methanone], the IC50 was 801 nM.

Take `CC(C)(C)Cn1cc(-c2ncc(C(=O)N3CCN(c4nc5nc(Cl)ccc5o4)CC3)cc2C(F)(F)F)cn1` [Example 279, [4-(5-chlorooxazolo[4,5-b]pyridin-2-yl)piperazin-1-yl]-[6-[1-(2,2-dimethylpropyl)pyrazol-4-yl]-5-(trifluoromethyl)-3-pyridyl]methanone]: inhibition was half-maximal at 11 nM (IC50).

`CC(C)(CF)c1nnc(-c2ccc(C(=O)N3CCN(c4nc5nc(Cl)ccc5o4)CC3)cc2F)o1` [Example 280, [4-(5-chlorooxazolo[4,5-b]pyridin-2-yl)piperazin-1-yl]-[3-fluoro-4-[5-(2-fluoro-1,1-dimethyl-ethyl)-1,3,4-oxadiazol-2-yl]phenyl]methanone] returned an IC50 of 119 nM.

In the case of `CC(C)(C)c1nnc(-c2ccc(C(=O)N3CCN(c4nc5nc(Cl)ccc5o4)CC3)cc2F)o1` [Example 281, [4-(5-tert-butyl-1,3,4-oxadiazol-2-yl)-3-fluoro-phenyl]-[4-(5-chlorooxazolo[4,5-b]pyridin-2-yl)piperazin-1-yl]methanone], the 50% inhibitory concentration (IC50) worked out at 36 nM.

`Cc1ccc2oc(N3CCN(C(=O)c4cnc(-c5cnn(CC(C)(C)C)c5)c(C(F)(F)F)c4)CC3)nc2n1` [Example 282, [6-[1-(2,2-dimethylpropyl)pyrazol-4-yl]-5-(trifluoromethyl)-3-pyridyl]-[4-(5-methyloxazolo[4,5-b]pyridin-2-yl)piperazin-1-yl]methanone] came in with an IC50 of 11 nM.

In the case of `CC(C)(C)Cn1nnc(-c2ccc(C(=O)N3CCN(c4nc5nc(Cl)ccc5o4)CC3)cc2)n1` [Example 283, (4-(5-chlorooxazolo[4,5-b]pyridin-2-yl)piperazin-1-yl)(4-(2-neopentyl-2H-tetrazol-5-yl)phenyl)methanone], the IC50 came to 3 nM.

As to `CC(C)(C)c1nc(-c2ccc(C(=O)N3CC4CCC(C3)N4c3nc4nc(Cl)ccc4o3)cc2)no1` [Example 284, [4-(5-tert-butyl-1,2,4-oxadiazol-3-yl)phenyl]-[8-(5-chlorooxazolo[4,5-b]pyridin-2-yl)-3,8-diazabicyclo[3.2.1]octan-3-yl]methanone], the midpoint of inhibition, the IC50, lay at 350 nM.

Regarding `CC(C)(C)Cn1cc(-c2ccc(C(=O)N3CCN(c4nc5nc(Cl)ccc5o4)C(CO)C3)cc2)nn1` (stereo not shown) [Example 285, [4-(5-chlorooxazolo[4,5-b]pyridin-2-yl)-3-(hydroxymethyl)piperazin-1-yl]-[4-[1-(2,2-dimethylpropyl)triazol-4-yl]phenyl]methanone], the IC50 amounted to 2050 nM.

In the case of `CC(C)(C)Cn1cc(-c2ccc(C(=O)N3CCN(c4nc5nc(F)ccc5o4)CC3)cc2)nn1` [Example 286, [4-[1-(2,2-dimethylpropyl)triazol-4-yl]phenyl]-[4-(5-fluorooxazolo[4,5-b]pyridin-2-yl)piperazin-1-yl]methanone], half-maximal inhibition (IC50) required 45 nM.

`Cc1cc(C(=O)N2CCN(c3nc4nc(Cl)ccc4o3)CC2)ccc1-n1cnc(C(C)(C)C)n1` [Example 287, [4-(3-tert-butyl-1,2,4-triazol-1-yl)-3-methyl-phenyl]-[4-(5-chlorooxazolo[4,5-b]pyridin-2-yl)piperazin-1-yl]methanone] registered a half-maximal inhibitory concentration (IC50) of 114 nM.
